Molecular target: T1, FPRL-1 (Homo sapiens, UniProt P25090)
T1 construct: expressed in transfected cells
T1 sequence (P25090 1-351): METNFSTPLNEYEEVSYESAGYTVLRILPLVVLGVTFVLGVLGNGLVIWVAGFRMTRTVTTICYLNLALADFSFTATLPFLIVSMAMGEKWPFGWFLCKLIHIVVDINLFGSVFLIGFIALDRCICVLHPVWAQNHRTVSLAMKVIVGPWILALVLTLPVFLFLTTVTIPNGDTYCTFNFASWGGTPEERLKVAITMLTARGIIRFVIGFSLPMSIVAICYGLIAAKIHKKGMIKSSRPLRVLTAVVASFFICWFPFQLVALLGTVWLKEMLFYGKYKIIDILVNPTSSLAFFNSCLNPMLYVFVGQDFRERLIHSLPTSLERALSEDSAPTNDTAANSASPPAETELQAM
Test: compound-induced calcium activity on FLIPR Tetra in CHO-Gα16 cells stably expressing FPRL1
Format: cell-based
Conditions: for FPRL-1 Ga16-CHO (Rel. eff.): relative efficacy; for EC50: tested 0.61 to 10,000 nM, read-out: FPRL-1 Ga16-CHO EC50
Procedure: CHO-Gα16 cells stably expressing FPRL1 were cultured in (F12, 10% FBS, 1% PSA, 400 μg/ml geneticin and 50 μg/ml hygromycin) and HEK-Gqi5 cells stable expressing FPR1 were cultured in (DMEM high glucose, 10% FBS, 1% PSA, 400 μg/ml geneticin and 50 μg/ml hygromycin). In general, the day before the experiment, 18,000 cells/well were plated in a 384-well clear bottom poly-d-lysine coated plate. The following day the screening compound-induced calcium activity was assayed on the FLIPR^Tetra. The drug plates were prepared in 384-well microplates using the EP3 and the MultiPROBE robotic liquid handling systems. Compounds were tested at concentrations ranging from 0.61 to 10,000 nM. Results are expressed as EC50 (nM) and efficacy values.

Structure (SMILES) | FPRL-1 Ga16-CHO (Rel. eff.) | EC50 [nM]
CC(C)C[C@H](NC(=O)Nc1ccc(Br)cc1)C(=O)NCC(=O)OC(C)(C)C [Compound 25, tert-butyl {[(2S)-2-{[(4-bromophenyl)carbamoyl]amino}-4-methylpentanoyl]amino}acetate] | (0.85) | 140
CC(C)C[C@H](NC(=O)Nc1ccc(Br)cc1F)C(=O)NCC(=O)OC(C)(C)C [Compound 33, tert-butyl{[(2S)-2-{[(4-bromo-2-fluorophenyl)carbamoyl]amino}-4-methylpentanoyl]amino}acetate] | (1.19) | 134
CC(=O)CNC(=O)[C@H](CC(C)C)NC(=O)Nc1ccc(Br)cc1F [Compound 35, (2S)-2-{[(4-bromo-2-fluorophenyl)carbamoyl]amino}-4-methyl-N-(2-oxopropyl)pentanamide] | (0.99) | 20
CC(C)C[C@H](NC(=O)Nc1ccc(Br)cc1F)C(=O)NCCO [Compound 36, (2S)-2-{[(4-bromo-2-fluorophenyl)carbamoyl]amino}-N-(2-hydroxyethyl)-4-methylpentanamide] | (1.05) | 77
CC(C)C[C@H](NC(=O)Nc1ccc(Br)cc1F)C(=O)N[C@@H](C)C(=O)OC(C)(C)C [Compound 38, tert-butyl(2S)-2-{[(2S)-2-{[(4-bromo-2-fluorophenyl)carbamoyl]amino}-4-methylpentanoyl]amino}propanoate] | (1.00) | 174
CC(C)C[C@H](NC(=O)Nc1ccc(Br)cc1F)C(=O)N[C@@H](C)C(=O)O [Compound 39, (2S)-2-{[(2S)-2-{[(4-bromo-2-fluorophenyl)carbamoyl]amino}-4-methylpentanoyl]amino}propanoic acid] | (0.95) | 12
CC(C)C[C@H](NC(=O)Nc1ccc(Br)cc1F)C(=O)N[C@@H](C)C(N)=O [Compound 40, (2S)-N-[(1S)-2-amino-1-methyl-2-oxoethyl]-2-{[(4-bromo-2-fluorophenyl)carbamoyl]amino}-4-methylpentanamide] | (1.05) | 31
CC(C)C[C@H](NC(=O)Nc1ccc(Br)cc1)C(=O)N[C@@H](C)C(=O)OC(C)(C)C [Compound 41] | (0.96) | 147
CC(C)C[C@H](NC(=O)Nc1ccc(Br)cc1)C(=O)N[C@H](C(=O)OC(C)(C)C)C(C)C [Compound 42, tert-butyl(2S)-2-{[(2S)-2-{[(4-bromophenyl)carbamoyl]amino}-4-methylpentanoyl]amino}-3-methylbutanoate] | (0.98) | 68
CC(C)C[C@H](NC(=O)Nc1ccc(Br)cc1)C(=O)N[C@@H](C)C(=O)O [Compound 43, (2S)-2-{[(2S)-2-{[(4-bromophenyl)carbamoyl]amino}-4-methylpentanoyl]amino}propanoic acid] | (1.05) | 11
CC(C)C[C@H](NC(=O)Nc1ccc(Br)cc1)C(=O)N[C@@H](C)C(N)=O [Compound 45, (2S)-N-[(1S)-2-amino-1-methyl-2-oxoethyl]-2-{[(4-bromophenyl)carbamoyl]amino}-4-methylpentanamide] | (0.96) | 24
CCC[C@H](NC(=O)[C@H](CC(C)C)NC(=O)Nc1ccc(Br)cc1)C(=O)OC(C)(C)C [Compound 49] | (1.06) | 13
CC(C)C[C@H](NC(=O)Nc1ccc(Br)cc1)C(=O)N[C@H](C(=O)OC(C)(C)C)c1ccccc1 [Compound 50, tert-butyl(2S)-{[(2S)-2-{[(4-bromophenyl)carbamoyl]amino}-4-methylpentanoyl]amino}(phenyl)ethanoate] | (1.02) | 122
CC(C)C[C@H](NC(=O)Nc1ccc(Br)cc1)C(=O)N[C@H](C(N)=O)c1ccccc1 [Compound 54, (2S)-N-[(1S)-2-amino-2-oxo-1-phenylethyl]-2-{[(4-bromophenyl)carbamoyl]amino}-4-methylpentanamide] | (0.99) | 84
CC(C)CC(C)(NC(=O)Nc1ccc(Br)cc1)C(=O)NCC(=O)OC(C)(C)C (stereo not drawn) [Compound 55, tert-butyl {[2-{[(4-bromophenyl)carbamoyl]amino}-2,4-dimethylpentanoyl]amino}acetate] | (0.98) | 58

Results, then the molecule that gave them:

FPRL-1 Ga16-CHO (Rel. eff.) | EC50 [nM] | Structure (SMILES)
(0.92) | 11 | CC(C)C[C@H](NC(=O)Nc1ccc(Br)cc1)C(=O)NCCO [Compound 26, (2S)-2-{[(4-bromophenyl)carbamoyl]amino}-N-(2-hydroxyethyl)-4-methylpentanamide]
(0.82) | 4.7 | CC(=O)CNC(=O)[C@H](CC(C)C)NC(=O)Nc1ccc(Br)cc1 [Compound 27, (2S)-2-{[(4-bromophenyl)carbamoyl]amino}-4-methyl-N-(2-oxopropyl)pentanamide]
(0.81) | 4.6 | CC[C@H](C)[C@H](NC(=O)Nc1ccc(Br)cc1)C(=O)NCC(N)=O [Compound 28, (2S,3S)—N-(2-amino-2-oxoethyl)-2-{[(4-bromophenyl)carbamoyl]amino}-3-methylpentanamide]
(1.00) | 10 | CC[C@H](C)[C@H](NC(=O)Nc1ccc(Br)cc1F)C(=O)NCC(N)=O [Compound 29, (2S,3S)-N-(2-amino-2-oxoethyl)-2-{[(4-bromo-2-fluorophenyl)carbamoyl]amino}-3-methylpentanamide]
(0.97) | 2.5 | CCC[C@H](NC(=O)Nc1ccc(Br)cc1)C(=O)NCC(N)=O [Compound 30, (2S)-N-(2-amino-2-oxoethyl)-2-{[(4-bromophenyl)carbamoyl]amino}-pentanamide]
(0.98) | 5.2 | CCC[C@H](NC(=O)Nc1ccc(Br)cc1F)C(=O)NCC(N)=O [Compound 31, (2S)-N-(2-amino-2-oxoethyl)-2-{[(4-bromo-2-fluorophenyl]carbamoyl}amino)pentanamide]
(1.08) | 1.05 | CC(C)C[C@H](NC(=O)Nc1ccc(Br)cc1)C(=O)NCC(N)=O [Compound 32, (2S)-N-(2-amino-2-oxoethyl)-2-{[(4-bromophenyl)carbamoyl]amino}-4-methylpentanamide]
(1.10) | 3.6 | CC(C)C[C@H](NC(=O)Nc1ccc(Br)cc1F)C(=O)NCC(=O)O [Compound 34, {[(2S)-2-{[(4-bromo-2-fluorophenyl)carbamoyl]amino}-4-methylpentanoyl]amino}acetic acid]
(1.13) | 1.83 | CC(C)C[C@H](NC(=O)Nc1ccc(Br)cc1)C(=O)N[C@H](C(=O)O)C(C)C [Compound 44, (2S)-2-{[(2S)-2-{[(4-bromophenyl)carbamoyl]amino}-4-methylpentanoyl]amino}-3-methylbutanoic acid]
(1.03) | 1.3 | CC(C)C[C@H](NC(=O)Nc1ccc(Br)cc1)C(=O)N[C@H](C(N)=O)C(C)C [Compound 46]
– | 5.1 | CC(C)C[C@H](NC(=O)Nc1ccc(Br)cc1)C(=O)NCC(O)CO (stereo partly drawn) [Compound 47, (2S)-2-{[(4-bromophenyl)carbamoyl]amino}-N-(2,3-dihydroxypropyl)-4-methylpentanamide]
– | 2.1 | CC(C)C[C@H](NC(=O)Nc1ccc(Br)cc1)C(=O)NCC(C)(C)O [Compound 47, (2S)-2-{[(4-bromophenyl)carbamoyl]amino}-N-(2-hydroxy-2-methylpropyl)-4-methylpentanamide]
– | 7.4 | CC(C)C[C@H](NC(=O)Nc1ccc(Br)cc1)C(=O)NC(CO)CO [Compound 48, (2S)-2-{[(4-bromophenyl)carbamoyl]amino}-N-[2-hydroxy-1-(hydroxymethyl)ethyl]-4-methylpentanamide]
– | 3 | CC(C)C[C@H](NC(=O)Nc1ccc(Br)cc1)C(=O)N[C@H](C)CO [Compound 48, (2S)-2-{[(4-bromophenyl)carbamoyl]amino}-N-[(1R)-2-hydroxy-1-methylethyl]-4-methylpentanamide]
(0.89) | 1 | CCC[C@H](NC(=O)[C@H](CC(C)C)NC(=O)Nc1ccc(Br)cc1)C(=O)O [Compound 51, (2S)-2-{[(2S)-2-{[(4-bromophenyl)carbamoyl]amino}-4-methylpentanoyl]amino}pentanoic acid]
(1.08) | 9.1 | CC(C)C[C@H](NC(=O)Nc1ccc(Br)cc1)C(=O)N[C@H](C(=O)O)c1ccccc1 [Compound 52, (2S)-{[(2S)-2-{[(4-bromophenyl)carbamoyl]amino}-4-methylpentanoyl]amino}(phenyl)ethanoic acid]
(1.03) | 6.4 | CCC[C@H](NC(=O)[C@H](CC(C)C)NC(=O)Nc1ccc(Br)cc1)C(N)=O [Compound 53, (2S)-N-[(2S)-1-amino-1-oxopentan-2-yl]-2-{[(4-bromophenyl)carbamoyl]amino}-4-methylpentanamide]

Reference: patent US10172832B2, “Amide derivatives of N-urea substituted amino acids as formyl peptide receptor like-1 (FPRL-1) receptor modulators” (Allergan, Inc., priority 2011, dated 2019)
